Tests used:
Hep3B = Hep3B viability assay; format: cell-based; conditions: Homo sapiens, FGF19-overexpressing HCC cell line, 72 h, CCK-8
Method: Hep3B (ThermoFisher Scientific, 11965, America) and Huh7 (ThermoFisher Scientific, 11095, America) cells were seeded into 96-well plates at 4000 cells/well and 2000 cells/well, respectively. […] Cell viabilities were measured by a CCK-8 kit (Vazyme, China). The IC50 values were calculated using GraphPad Prism software.

IKK-beta = IKK-beta (Homo sapiens, UniProt O14920); assay: Kinase selectivity profiling
NEK2 = NEK2 (Homo sapiens, UniProt P51955); assay: Kinase selectivity profiling
MINK = MINK (Homo sapiens, UniProt Q8N4C8); assay: Kinase selectivity profiling
p38α = p38α (Homo sapiens, UniProt Q16539); assay: Kinase selectivity profiling
BMX = BMX (Homo sapiens, UniProt P51813); assay: Kinase selectivity profiling
TRKC(NTRK3) = TRKC(NTRK3) (Homo sapiens, UniProt Q16288); assay: Kinase selectivity profiling
RSK3 = RSK3 (Homo sapiens, UniProt Q15349); assay: Kinase selectivity profiling
CK1γ1 = CK1γ1 (Homo sapiens, UniProt Q9HCP0); assay: Kinase selectivity profiling
ITK = ITK (Homo sapiens, UniProt Q08881); assay: Kinase selectivity profiling
Erk1 = Erk1 (Homo sapiens, UniProt P27361); assay: Kinase selectivity profiling
MER = MER (Homo sapiens, UniProt Q12866); assay: Kinase selectivity profiling
EPHA7 = EPHA7 (Homo sapiens, UniProt Q15375); assay: Kinase selectivity profiling
HIPK4 = HIPK4 (Homo sapiens, UniProt Q8NE63); assay: Kinase selectivity profiling
p38β = p38β (Homo sapiens, UniProt Q15759); assay: Kinase selectivity profiling
EPHA2 = EPHA2 (Homo sapiens, UniProt P29317); assay: Kinase selectivity profiling
CDK2/CycE1 = CDK2/CycE1 (Homo sapiens, UniProt P24941); assay: Kinase selectivity profiling
CLK1 = CLK1 (Homo sapiens, UniProt P49759); assay: Kinase selectivity profiling
PAK3 = PAK3 (Homo sapiens, UniProt O75914); assay: Kinase selectivity profiling
FLT4 (VEGFR3) = FLT4 (VEGFR3) (Homo sapiens, UniProt P35916); assay: Kinase selectivity profiling
SGK2 = SGK2 (Homo sapiens, UniProt Q9HBY8); assay: Kinase selectivity profiling
MAPKAPK2 = MAPKAPK2 (Homo sapiens, UniProt P49137); assay: Kinase selectivity profiling
p38γ = p38γ (Homo sapiens, UniProt P53778); assay: Kinase selectivity profiling
RSK4 = RSK4 (Homo sapiens, UniProt Q9UK32); assay: Kinase selectivity profiling
FAK = FAK (Homo sapiens, UniProt Q05397); assay: Kinase selectivity profiling
ROS1 = ROS1 (Homo sapiens, UniProt P08922); assay: Kinase selectivity profiling
FGR = FGR (Homo sapiens, UniProt P09769); assay: Kinase selectivity profiling
DYRK1A = DYRK1A (Homo sapiens, UniProt Q13627); assay: Kinase selectivity profiling
EPHB4 = EPHB4 (Homo sapiens, UniProt P54760); assay: Kinase selectivity profiling
LCK = LCK (Homo sapiens, UniProt P06239); assay: Kinase selectivity profiling
TAOK2 = TAOK2 (Homo sapiens, UniProt Q9UL54); assay: Kinase selectivity profiling
CK1ε = CK1ε (Homo sapiens, UniProt P49674); assay: Kinase selectivity profiling
CK1γ2 = CK1γ2 (Homo sapiens, UniProt P78368); assay: Kinase selectivity profiling
TYK2 = TYK2 (Homo sapiens, UniProt P29597); assay: Kinase selectivity profiling
CDK5/p25NCK = CDK5/p25NCK (Homo sapiens, UniProt Q00535); assay: Kinase selectivity profiling
CDK1/CycE1 = CDK1/CycE1 (Homo sapiens, UniProt P06493); assay: Kinase selectivity profiling
MST2 = MST2 (Homo sapiens, UniProt Q13188); assay: Kinase selectivity profiling
CDK6/CycD1 = CDK6/CycD1 (Homo sapiens, UniProt Q00534); assay: Kinase selectivity profiling
PLK2 = PLK2 (Homo sapiens, UniProt Q9NYY3); assay: Kinase selectivity profiling
PLK2, sequence (Q9NYY3 whole entry): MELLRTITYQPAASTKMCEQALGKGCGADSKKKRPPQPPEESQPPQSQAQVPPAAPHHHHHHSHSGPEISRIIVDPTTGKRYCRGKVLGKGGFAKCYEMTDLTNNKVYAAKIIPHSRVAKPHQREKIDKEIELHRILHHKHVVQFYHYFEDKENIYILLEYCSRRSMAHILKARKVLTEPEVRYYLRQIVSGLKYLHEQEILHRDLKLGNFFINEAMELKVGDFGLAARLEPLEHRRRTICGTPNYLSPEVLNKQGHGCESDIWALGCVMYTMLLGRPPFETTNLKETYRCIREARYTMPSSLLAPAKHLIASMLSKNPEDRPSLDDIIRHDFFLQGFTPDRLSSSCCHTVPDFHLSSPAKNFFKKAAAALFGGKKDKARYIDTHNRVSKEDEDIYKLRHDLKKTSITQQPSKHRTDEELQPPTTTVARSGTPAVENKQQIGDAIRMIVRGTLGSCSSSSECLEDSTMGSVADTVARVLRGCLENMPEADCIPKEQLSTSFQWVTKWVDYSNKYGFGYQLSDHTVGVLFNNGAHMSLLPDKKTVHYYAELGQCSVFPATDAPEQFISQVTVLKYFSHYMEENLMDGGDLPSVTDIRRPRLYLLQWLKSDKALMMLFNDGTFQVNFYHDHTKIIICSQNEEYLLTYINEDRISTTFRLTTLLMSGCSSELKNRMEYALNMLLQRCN

EPHB4, sequence (P54760 16-987): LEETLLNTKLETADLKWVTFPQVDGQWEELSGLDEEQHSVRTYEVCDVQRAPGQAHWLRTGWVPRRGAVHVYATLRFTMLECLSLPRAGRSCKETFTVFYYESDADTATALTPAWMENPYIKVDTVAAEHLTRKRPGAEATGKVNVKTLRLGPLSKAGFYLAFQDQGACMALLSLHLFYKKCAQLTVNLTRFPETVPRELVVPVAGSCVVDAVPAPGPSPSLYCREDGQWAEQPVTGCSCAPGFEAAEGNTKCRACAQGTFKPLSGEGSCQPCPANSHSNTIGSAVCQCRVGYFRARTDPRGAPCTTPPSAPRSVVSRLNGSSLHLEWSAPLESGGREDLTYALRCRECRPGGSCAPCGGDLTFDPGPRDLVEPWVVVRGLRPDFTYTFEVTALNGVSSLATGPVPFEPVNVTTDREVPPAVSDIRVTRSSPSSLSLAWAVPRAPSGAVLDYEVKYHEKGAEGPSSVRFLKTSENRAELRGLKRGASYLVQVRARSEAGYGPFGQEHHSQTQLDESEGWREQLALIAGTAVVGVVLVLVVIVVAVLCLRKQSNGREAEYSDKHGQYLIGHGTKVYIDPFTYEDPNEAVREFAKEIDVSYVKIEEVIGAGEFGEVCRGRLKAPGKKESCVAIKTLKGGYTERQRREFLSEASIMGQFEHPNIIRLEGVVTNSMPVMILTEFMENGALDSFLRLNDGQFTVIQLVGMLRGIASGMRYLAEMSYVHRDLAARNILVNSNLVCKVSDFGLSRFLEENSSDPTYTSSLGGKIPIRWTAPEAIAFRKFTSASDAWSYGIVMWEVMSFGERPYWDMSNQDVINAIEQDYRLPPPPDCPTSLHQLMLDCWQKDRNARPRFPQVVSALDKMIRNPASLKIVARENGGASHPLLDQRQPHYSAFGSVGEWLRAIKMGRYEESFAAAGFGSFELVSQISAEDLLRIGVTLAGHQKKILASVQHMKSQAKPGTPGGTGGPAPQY
MAPKAPK2, sequence (P49137 whole entry): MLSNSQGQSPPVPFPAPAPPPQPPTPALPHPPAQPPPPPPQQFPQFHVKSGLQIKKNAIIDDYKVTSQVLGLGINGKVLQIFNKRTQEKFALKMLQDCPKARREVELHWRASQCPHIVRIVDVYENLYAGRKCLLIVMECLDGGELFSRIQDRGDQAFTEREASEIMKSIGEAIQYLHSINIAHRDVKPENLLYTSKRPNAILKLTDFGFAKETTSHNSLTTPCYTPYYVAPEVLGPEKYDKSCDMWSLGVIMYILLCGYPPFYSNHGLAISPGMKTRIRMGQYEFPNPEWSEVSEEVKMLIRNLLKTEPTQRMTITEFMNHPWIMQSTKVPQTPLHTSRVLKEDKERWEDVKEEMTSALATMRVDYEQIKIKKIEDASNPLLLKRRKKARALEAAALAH
BMX, sequence (P51813 whole entry): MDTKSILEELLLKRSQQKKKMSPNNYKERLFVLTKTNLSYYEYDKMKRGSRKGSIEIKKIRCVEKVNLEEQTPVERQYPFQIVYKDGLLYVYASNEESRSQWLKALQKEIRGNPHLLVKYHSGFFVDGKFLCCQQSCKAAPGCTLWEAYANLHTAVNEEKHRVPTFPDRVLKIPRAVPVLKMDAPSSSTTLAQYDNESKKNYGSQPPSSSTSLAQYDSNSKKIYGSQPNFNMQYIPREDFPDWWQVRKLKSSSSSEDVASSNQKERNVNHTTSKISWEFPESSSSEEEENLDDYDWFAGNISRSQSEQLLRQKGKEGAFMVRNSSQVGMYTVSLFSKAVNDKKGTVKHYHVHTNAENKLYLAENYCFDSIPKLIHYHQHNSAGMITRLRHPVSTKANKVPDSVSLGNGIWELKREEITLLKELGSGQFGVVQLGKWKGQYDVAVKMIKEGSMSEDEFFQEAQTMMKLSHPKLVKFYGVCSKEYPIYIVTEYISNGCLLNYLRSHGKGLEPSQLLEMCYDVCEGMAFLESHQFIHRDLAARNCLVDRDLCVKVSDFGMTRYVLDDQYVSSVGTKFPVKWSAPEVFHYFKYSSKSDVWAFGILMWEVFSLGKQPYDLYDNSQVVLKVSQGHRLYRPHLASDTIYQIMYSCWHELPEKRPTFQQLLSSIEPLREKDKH
SGK2, sequence (Q9HBY8 whole entry): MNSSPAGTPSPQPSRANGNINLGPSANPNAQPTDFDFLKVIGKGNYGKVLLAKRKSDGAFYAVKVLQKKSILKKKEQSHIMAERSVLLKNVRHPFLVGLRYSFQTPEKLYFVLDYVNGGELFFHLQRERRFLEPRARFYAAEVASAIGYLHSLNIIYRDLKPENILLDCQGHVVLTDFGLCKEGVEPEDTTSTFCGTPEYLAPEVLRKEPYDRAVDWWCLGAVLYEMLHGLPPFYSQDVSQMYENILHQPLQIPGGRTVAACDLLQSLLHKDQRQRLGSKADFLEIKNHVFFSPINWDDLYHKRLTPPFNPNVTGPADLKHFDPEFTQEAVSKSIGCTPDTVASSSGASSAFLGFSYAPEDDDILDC
MST2, sequence (Q13188 whole entry): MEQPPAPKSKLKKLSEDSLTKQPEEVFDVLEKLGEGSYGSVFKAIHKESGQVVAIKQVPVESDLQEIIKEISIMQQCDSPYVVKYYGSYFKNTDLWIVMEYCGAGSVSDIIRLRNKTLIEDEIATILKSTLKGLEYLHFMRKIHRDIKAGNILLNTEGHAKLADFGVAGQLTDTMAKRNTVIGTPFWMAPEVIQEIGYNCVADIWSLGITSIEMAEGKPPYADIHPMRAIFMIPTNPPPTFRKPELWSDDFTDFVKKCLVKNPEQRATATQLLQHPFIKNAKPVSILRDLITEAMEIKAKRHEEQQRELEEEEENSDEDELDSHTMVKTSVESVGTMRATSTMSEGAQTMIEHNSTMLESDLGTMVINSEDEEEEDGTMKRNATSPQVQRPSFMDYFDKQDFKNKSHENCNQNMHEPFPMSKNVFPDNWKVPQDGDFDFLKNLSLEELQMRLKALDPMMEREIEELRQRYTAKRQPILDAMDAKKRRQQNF
p38α, sequence (Q16539 whole entry): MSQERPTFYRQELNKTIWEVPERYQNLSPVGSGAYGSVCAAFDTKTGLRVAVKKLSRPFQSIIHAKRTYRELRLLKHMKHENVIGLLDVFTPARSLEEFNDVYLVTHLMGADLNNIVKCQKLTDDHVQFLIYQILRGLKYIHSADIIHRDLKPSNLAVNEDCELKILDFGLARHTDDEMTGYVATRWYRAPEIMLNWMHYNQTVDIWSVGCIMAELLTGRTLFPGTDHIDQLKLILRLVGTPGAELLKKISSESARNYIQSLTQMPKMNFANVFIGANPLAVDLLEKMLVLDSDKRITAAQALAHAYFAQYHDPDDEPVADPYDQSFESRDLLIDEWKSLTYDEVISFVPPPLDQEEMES
FGR, sequence (P09769 whole entry): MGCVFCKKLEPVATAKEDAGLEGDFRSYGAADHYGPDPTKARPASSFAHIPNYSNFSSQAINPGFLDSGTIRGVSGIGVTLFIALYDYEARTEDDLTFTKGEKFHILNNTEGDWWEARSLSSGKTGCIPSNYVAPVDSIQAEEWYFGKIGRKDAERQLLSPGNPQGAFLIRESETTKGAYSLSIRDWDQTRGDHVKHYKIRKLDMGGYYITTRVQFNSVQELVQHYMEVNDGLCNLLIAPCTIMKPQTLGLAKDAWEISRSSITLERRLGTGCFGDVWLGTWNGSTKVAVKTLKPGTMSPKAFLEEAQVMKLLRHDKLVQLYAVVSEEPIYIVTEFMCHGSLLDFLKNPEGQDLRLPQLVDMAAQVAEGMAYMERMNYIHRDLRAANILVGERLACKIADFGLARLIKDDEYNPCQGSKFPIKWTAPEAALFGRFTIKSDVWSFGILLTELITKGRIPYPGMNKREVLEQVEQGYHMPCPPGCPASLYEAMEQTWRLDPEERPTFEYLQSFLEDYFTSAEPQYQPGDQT
NEK2, sequence (P51955 whole entry): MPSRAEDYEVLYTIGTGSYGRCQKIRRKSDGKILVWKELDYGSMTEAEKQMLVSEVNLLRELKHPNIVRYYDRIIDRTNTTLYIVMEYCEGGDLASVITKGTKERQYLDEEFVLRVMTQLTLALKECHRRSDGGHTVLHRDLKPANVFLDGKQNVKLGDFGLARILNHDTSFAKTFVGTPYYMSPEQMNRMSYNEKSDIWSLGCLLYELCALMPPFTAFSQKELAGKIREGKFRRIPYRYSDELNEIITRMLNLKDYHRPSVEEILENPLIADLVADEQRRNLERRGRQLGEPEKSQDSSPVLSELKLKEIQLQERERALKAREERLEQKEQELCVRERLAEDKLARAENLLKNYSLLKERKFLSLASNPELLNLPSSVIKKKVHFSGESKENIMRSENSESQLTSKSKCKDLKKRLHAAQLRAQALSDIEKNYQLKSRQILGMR

Compound: C=CC(=O)Nc1ccccc1Nc1ncc2c(n1)N(CCCN1CCN(C(=O)C=C)CC1)C(=O)N(c1cc(OC)cc(OC)c1)C2 [CXF-009]
- IC50 (Hep3B): 895 nM
- inhibition at 1 µM (IKK-beta): 19%
- inhibition at 1 µM (NEK2): 17.9%
- inhibition at 1 µM (MINK): 16.6%
- inhibition at 1 µM (p38α): 10.6%
- inhibition at 1 µM (BMX): 10.5%
- inhibition at 1 µM (TRKC(NTRK3)): 8.57%
- inhibition at 1 µM (RSK3): 7.58%
- inhibition at 1 µM (CK1γ1): 4.78%
- inhibition at 1 µM (ITK): 4.35%
- inhibition at 1 µM (Erk1): 3.99%
- inhibition at 1 µM (MER): 3.59%
- inhibition at 1 µM (EPHA7): 2.74%
- inhibition at 1 µM (HIPK4): 2.32%
- inhibition at 1 µM (p38β): 2.25%
- inhibition at 1 µM (EPHA2): 2.12%
- inhibition at 1 µM (CDK2/CycE1): 1.59%
- inhibition at 1 µM (CLK1): 1.48%
- inhibition at 1 µM (PAK3): 0.97%
- inhibition at 1 µM (FLT4 (VEGFR3)): 0.74%
- inhibition at 1 µM (SGK2): 0.51%
- inhibition at 1 µM (MAPKAPK2): 0.15%
- inhibition at 1 µM (p38γ): 0.13%
- inhibition at 1 µM (RSK4): 0%
- inhibition at 1 µM (FAK): -0.41%
- inhibition at 1 µM (ROS1): -0.51%
- inhibition at 1 µM (FGR): -1.1%
- inhibition at 1 µM (DYRK1A): -1.23%
- inhibition at 1 µM (EPHB4): -1.86%
- inhibition at 1 µM (LCK): -3.46%
- inhibition at 1 µM (TAOK2): -3.76%
- inhibition at 1 µM (CK1ε): -4.6%
- inhibition at 1 µM (CK1γ2): -4.8%
- inhibition at 1 µM (TYK2): -5.05%
- inhibition at 1 µM (CDK5/p25NCK): -5.5%
- inhibition at 1 µM (CDK1/CycE1): -7.18%
- inhibition at 1 µM (MST2): -8.12%
- inhibition at 1 µM (CDK6/CycD1): -9.58%
- inhibition at 1 µM (PLK2): -19.5%
